The source of these data is patent US10858369B2, “Pseudopolymorphic forms of a HIV protease inhibitor” (Janssen Sciences Ireland Unlimited Company, priority 2002, dated 2020).

Values after ≈ are worked out from the molar mass of the structure shown.

What all share (format): physicochemical
Data set [1] in a line: Fractions of Form B characterized with TG, DSC and IR. Details: key to IR: ~Hydrate, Ref: ~hydrate, Ref: identical with reference. The source says:
Different fractions of Form B were characterized with thermogravimetry (TG), differential scanning calorimetry (DSC) and infrared spectroscopy (IR).

Data set [2] is described as follows: Adsorption-Desorption tests (vapor sorption, weight change with respect to atmospheric humidity, 25° C.). The procedure:
drying temperature: 40° C.
equilibrium: ≤0.05% in 5 min. or 60 min.
data interval: 0.05% or 2 min.
At the drying step about 0.6% weight loss was registered.
About 21 mg of Form K were transferred into a VTI vapor sorption analyzer model SGA100 and the weight change with respect to the atmospheric humidity was recorded at the following conditions:
drying temperature: 30° C.
data interval: 0.05% or 2.0 min.
Form K is hygroscopic. […] Form K adsorbed up to 1.5% water at high relative humidity.
A different study of the adsorption and desorption of water by Form K at 25° C. at different conditions of relative humidity was investigated on an amount of about 18 mg of the mesylate solvate. The weight change as a function of relative humidity was registered.

Data set [3] in a line: Aqueous solubility in solvents with different pH (excess solute equilibrated at 20° C., UV spectrometry). The procedure:
Further solubility investigations were performed in function of pH. […] An excess of the solute was equilibrated with the solvent at 20° C. for at least 24 hours. After removing the undissolved compound, the concentration in solution was determined using UV spectrometry.
Aqueous solubilities of Form B were measured in solvents with different pH. An excess of the solute was equilibrated with the solvent at 20° C. for at least 24 hours. After removing the undissolved compound, the concentration in solution was determined using UV spectrometry.
Aqueous solubilities of Form K were measured in solvents with different pH. An excess of the solute was equilibrated with the solvent at 20° C. for at least 48 hours. After removing the undissolved compound, the concentration in solution was determined using UV spectrometry.

[4] abbreviates: initial drying step (drying temperature 40° C. Form A, 30° C. Form K).
Setting [5] is: different study, about 18 mg, 25° C., FIG. 26.

For the molecule `CC(C)CN(C[C@@H](O)[C@H](Cc1ccccc1)NC(=O)OC1CO[C@H]2OCC[C@@H]12)S(=O)(=O)c1ccc(N)cc1` (single isomer, unassigned) [Form B fraction 1], in data set [1] (after ADS/DES), the IR entry is recorded as “±Hydrate,” and the “TG % weight change <100° C.” value came to 4.30%. In addition, in data set [1] (fraction as such), the “DSC Max (° C.)” value came out at 69.1 °C; the IR result is on record as “Hydrate, Ref”; the “TG % weight change <100° C.” value came to 5.65%.
As for `CC(C)CN(C[C@@H](O)[C@H](Cc1ccccc1)NC(=O)OC1CO[C@H]2OCC[C@@H]12)S(=O)(=O)c1ccc(N)cc1` (single isomer, unassigned) [Form B fraction 2], in data set [1] (after 5 d 40° C./75% RH), the “DSC Max (° C.)” value stood at 74.1 °C; the IR result is “~Hydrate, Ref”; the “TG % weight change <100° C.” value is 3.56%. In addition, in data set [1] (fraction as such), the “DSC Max (° C.)” value is 75.6 °C; the IR result is given as “~Hydrate, Ref”; the “TG % weight change <100° C.” value amounted to 5.91%.
Regarding `CC(C)CN(C[C@@H](O)[C@H](Cc1ccccc1)NC(=O)OC1CO[C@H]2OCC[C@@H]12)S(=O)(=O)c1ccc(N)cc1` (single isomer, unassigned) [Form B fraction 3], in data set [1] (after 5 d 40° C./75% RH), the “DSC Extra (° C.)” value was determined as 62.8 °C, the “DSC Max (° C.)” value worked out at 77.4 °C, the IR result is given as “±Hydrate,” and the “TG % weight change <100° C.” value is 2.33%. Moreover, in data set [1] (fraction as such), the “DSC Extra (° C.)” value came out at 67.8 °C, the “DSC Max (° C.)” value stood at 77.0 °C, the IR entry is given as “±Hydrate,” and the “TG % weight change <100° C.” value is recorded as 3.13%.
The term solubility (thermodynamic) denotes solubility found after equilibrating the solid with the medium. `CC(C)CN(C[C@@H](O)[C@H](Cc1ccccc1)NC(=O)O[C@H]1CO[C@H]2OCC[C@H]21)S(=O)(=O)c1ccc(N)cc1` [Form B, (3R,3aS,6aR)-hexahydrofuro [2,3-b] furan-3-yl (1S,2R)-3-[[(4-aminophenyl)sulfonyl] (isobutyl)amino]-1-benzyl-2-hydroxypropylcarbamate]: the hygroscopicity result in data set [2] (25° C.) is on record as “hygroscopic”. For the same molecule, in data set [2] (25° C.), the “obtained product after ADS/DES” value was “mixture of hydrate and amorphous product”. Moreover, in data set [2] (25° C.), the “water remained on the sample after the desorption cycle” value is reported as “about 1.2%”. Further, the “weight loss at the drying step” value in data set [2] (setting [4]) was “about 5.6%”. The solubility in data set [3] (0.1N HCl (pH 1.1), at least 24 hours) is reported as 150 (pH 1.1) mg/100 ml solution; in data set [3] (Buffer pH 2 (citrate/HCl) (pH 2.0), at least 24 hours) it was 23 (pH 2.0) mg/100 ml solution; in data set [3] (Buffer pH 3 (citrate/HCl) (pH 3.0), at least 24 hours) it was 13 (pH 3.0) mg/100 ml solution; in data set [3] (Buffer pH 4 (citrate/HCl) (pH 4.0), at least 24 hours), 12 (pH 4.0) mg/100 ml solution. The solubility (thermodynamic) in data set [3] (pH 0.14, aqueous buffer, 1.0N HCl (pH 0.14), at least 24 hours) came to 5100 µg/mL (≈ 9310 µM); in data set [3] (pH 5.1, water, Water (pH 5.1), at least 24 hours), 100 µg/mL (≈ 183 µM).
With `CC(C)CN(C[C@@H](O)[C@H](Cc1ccccc1)NC(=O)O[C@H]1CO[C@H]2OCC[C@H]21)S(=O)(=O)c1ccc(N)cc1` [Form K, (3R,3aS,6aR)-hexahydrofuro [2,3-b] furan-3-yl (1S,2R)-3-[[(4-aminophenyl)sulfonyl] (isobutyl)amino]-1-benzyl-2-hydroxypropylcarbamate], the hygroscopicity result in data set [2] (25° C.) is “hygroscopic”; in data set [2] (setting [5]), “slightly hygroscopic”. Moreover, the “drying of the product during the desorption cycle” value is reported as “dried completely” in data set [2] (25° C., about 21 mg, FIG. 25) and “dried completely” in data set [2] (setting [5]). Also, the “weight loss at the drying step” value in data set [2] (different study, about 18 mg of the mesylate solvate, FIG. 26) is recorded as “about 0.6%”; in data set [2] (setting [4]) it was 0.3%. Moreover, the solubility in data set [3] (20% HPβCD in water (pH 1.6), at least 48 hours) is listed as 2100 (pH 1.6) mg/100 ml solution. Besides, the solubility (thermodynamic) came to 240 µg/mL (≈ 438 µM) in data set [3] (pH 2, aqueous buffer, 0.01N HCl (pH 2.0), at least 48 hours); 210 µg/mL (≈ 383 µM) in data set [3] (pH 2, aqueous buffer, Buffer pH 2 (citrate/HCl) (pH 2.0), at least 48 hours); 120 µg/mL (≈ 219 µM) in data set [3] (pH 3, aqueous buffer, Buffer pH 3 (citrate/HCl) (pH 3.0), at least 48 hours); 190 µg/mL (≈ 347 µM) in data set [3] (pH 3.3, water, Water (pH 3.3), at least 48 hours); 110 µg/mL (≈ 201 µM) in data set [3] (pH 4, aqueous buffer, Buffer pH 4 (citrate/HCl) (pH 4.0), at least 48 hours).
